Results taken from US8207403B2, “EPSP synthase with high glyphosate resistance and its encoded sequence” (Biotechnology Research Institute The Chinese Academy of …, priority 2007, dated 2012).

Columns and labels:
[1] = tested on: GR-79 EPSP synthase (5-enolpyruvylshikinate-3-phosphate synthase), SEQ ID NO:1; assay: EPSP synthase enzyme activity and kinetic parameters (inorganic phosphorus release, PEP + S3P); type: biochemical
Procedure: (§1) Standard curve of inorganic phosphorus: 10 mM inorganic phosphorus was diluted at 1:10, and 0, 1, 2, 3 . . . 20 μl was taken into 1.5 ml Eppendorf tube and milli-Q purified water was added up to 100 μl with mixing, 0.8 ml MAT solution was added with mixing, and then 100 μl 34% SC solution was quickly added with mixing after 3 min, kept at room temperature for 20 min and then the OD660 value was determined. Repeat the operations three times as above. The standard curve of inorganic phosphorus was achieved using the concentration of inorganic phosphorus as abscissa and the OD660 value as ordinate.
(§2) 1) Enzyme activity test: The crude protein extracted with enzyme was quantified using Coomassie Blue G-250 method (Bradford, 1976). The follow solutions were added into 1.5 ml Eppendorf tube on the ice: 2 μl of 10 mM PEP solution, 2 μl of 10 mM S3P solution, 2 μl of 0.5M HEPES solution, 2 μl of 1 mM (NH4)6MO7O24.4H2O solution and 12 μl of milli-Q purified water with mixing, bathed at 28° C. for 5 min and 1 μl crude enzyme solution was added into each, tube at intervals and timing, 200 μl MAT solution was added after 2 min at 2s intervals again, color development was performed for 3 min, and then 20 μl of 34% SC solution was added at 2s intervals and quickly mixed well, the color was developed for 20 min at room temperature and finally the OD660 value was determined. […]

[2] = tested on: E. coli ER2799 (EPSP synthase defective) with EPSP synthase gene from Agrobacterium sp. cp4 (CP4-ER); assay: Glyphosate tolerance test, positive control strain CP4-ER; type: cell-based; settings: M9 liquid medium, 37° C., 36 h, OD600
Procedure: CP4-ER strain was a strain with glyphosate resistance obtained by ligating the EPSP synthase gene from Agrobacterium sp. cp4 to the vector pACYC 184 and introducing into EPSP synthase defective E. coli ER2799 strain (NEB Company). It was used as a positive control in the figure.
(§3) The three strains were respectively inoculated into the limited medium M9 with the glyphosate concentration of 0, 20, 50, 80, 100, 120, 150, 200, 250, 300 mM, shaking cultured at 37° C. for 36 h, the absorbance values were determined at OD600 and the figure was plotted with the values.
(§4) E. coli ER2799 (containing new cloned pACYCGR-79 plasmid) was inoculated into M9 liquid medium (Cm^r) with 0-200 mm glyphosate, shaking cultured at 37° C. for 36 h, and the OD600 value of culture was determined. E. coli ER2799 with plasmid without insert was used as negative control.

[3] = tested on: E. coli ER2799 (EPSP synthase defective) carrying pACYCGR-79 (GR-79-ER); assay: Glyphosate tolerance test, strain GR-79-ER; type: cell-based; settings: M9 liquid medium, 37° C., 36 h, OD600
Procedure: FIG. 1 is a graph of analysis of glyphosate resistance of clone GR-79, wherein: GR-79-ER strain was a strain with glyphosate resistance obtained by cutting the total DNA of soil with enzyme partly, ligating the vector pACYC 184 and introducing into EPSP synthase defective E. coli ER2799 strain (NEB Company).
as §3, §4

[4] = tested on: transgenic tobacco with GR-79 EPSP synthase gene; assay: Glyphosate resistance gradient assay of transgenic tobacco; type: in vivo; settings: greenhouse
Excerpt: The plant expression vector of EPSP synthase gene with high glyphosate resistance was constructed and transgenic tobaccos were constructed by transformation using leaf disc cocultivation.
(8) The plants were removed when the root systems were large, the solid medium attached was washed off with sterile water, and the plants were transferred into the soil, covered with a glass cover for several days at the beginning days, and the cover was removed after the plants were robust, and then the plants were transferred to the solid medium with 10 mM glyphosate to screen the plant strains with glyphosate resistance;

GR-79 EPSP = GR-79 EPSP (uncultured soil bacterium (soil metagenome), UniProt A5Y5A5); assay: Enzyme activity test of EPSP synthase (inorganic phosphorus release); type: biochemical; settings: crude enzyme, PEP and S3P substrates, 28° C., OD660
Chain of GR-79 EPSP (A5Y5A5 entry or part of it): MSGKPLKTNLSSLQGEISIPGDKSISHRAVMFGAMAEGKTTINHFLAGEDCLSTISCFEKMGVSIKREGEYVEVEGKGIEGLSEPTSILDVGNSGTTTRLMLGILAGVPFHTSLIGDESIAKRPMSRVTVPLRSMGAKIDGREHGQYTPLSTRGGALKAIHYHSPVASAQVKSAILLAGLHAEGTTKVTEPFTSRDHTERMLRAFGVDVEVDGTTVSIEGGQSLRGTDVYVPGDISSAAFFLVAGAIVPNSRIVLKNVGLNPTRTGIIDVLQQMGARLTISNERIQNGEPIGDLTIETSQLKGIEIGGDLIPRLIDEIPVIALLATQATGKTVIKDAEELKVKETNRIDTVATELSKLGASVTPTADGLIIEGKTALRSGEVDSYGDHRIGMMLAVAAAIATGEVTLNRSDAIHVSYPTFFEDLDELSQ
Procedure: as §1, §2

C=C(OP(=O)(O)O)C(=O)O [PEP]
Km ([1]; S3P maintained at 1 mM, PEP 0.05-1.0 mM, Eadie-Hofstee): 79.2 ± 32 µM

O=C(O)CNCP(=O)(O)O [glyphosate]
glyphosate resistance (highest glyphosate concentration allowing growth) [2]: 200 mM | glyphosate resistance (highest glyphosate concentration allowing growth) [3]: 250 mM | Ki/Km ([1]; Ki (glyphosate) / Km (PEP)): 2.16 | growth of transgenic plants in medium with 20 mM glyphosate [4]: could grow well

B1: GR-79 EPSP: new type I EPSP synthase with high glyphosate resistance, 445 amino acids, SEQ ID NO:1 (protein)
chain: MSHSTSRSPWSKATEYHEALVTPTSNKINGEIFVPGSKSYTNRALIIAALAEGTSTLKGILKSDDSYWCIDALRRLGIKIEVAEETVTIHGCGGKWPVQSAELFIGAAGTIARFLPGALAVAQQGEWIVDGVPQLRERPLKPLVDALTQLGGRIEYLTEHPGLPLRVKGAGLSGQHVRVPGNVSSQFLSGLLIASPYASEAVSIEVINGLVQPSYIAITIQLMREFGAKVEHNEDYSLFKVYPTGYQGRDTILEADASTACYFLSLAALTGGTIQVKNVGYHSYQPDARFIDVLEQMGCEVIKNESFLEVTGPTRLKGGFEVDMKPMSDQALTIGALAPFADAPIRVTNVAHIRAHESDRIAVICSSLQQMGVQVEEREDGFTIYPGQPVGTTLNPHDDHRNAMVFGLLGVKVPHIRIVDPGCVSKTCPAYFEELQKFGIHVEYN
modifications: From a mixture of organisms
enzyme activity (GR-79 EPSP): 10.477 U/mg
